In one test the test system is pJAK2, pSTAT5, pSTAT3. Nature of the test: Time-course immunoblots/ELISA of JAK2/STAT crosstalk in breast cancer lines in vitro. It counts as cell-based, human, mouse. The following applies: for Start of JAK2 activation (pJAK2/pSTAT5 upregulation) after adding the compound: single PI3K or mTOR inhibition, in vitro time course; for pJAK2 and pSTAT5 (JAK2/STAT5 activation) in vitro: after 4 hours-8 hours of treatment. In general terms: In western blotting, separated proteins are transferred to a membrane and probed.

Test [1] concerns pSTAT5/STAT5. In words: pSTAT5/STAT5 immunoblotting with densitometry in BEZ-treated human breast cancer cell lines. It counts as cell-based. The following applies: 300 nM BEZ, 8 h, relative to DMSO.
In test [2] the test system is JAK2/STAT5 and IL-8 secretion. In words: JAK2/STAT5 and IL-8 in primary human triple-negative breast tumor xenografts. It counts as in vivo, human tumors in immunodeficient mice. Particulars: 30 mg/kg BEZ, 3-4 days, xenografts in immunodeficient mice. An excerpt: (§1) Animal experiments. SCID/beige, SCID/NOD and Balb/c mice (Jackson Labs) were maintained under specific pathogen-free conditions and were used in compliance with protocols approved by the Institutional Animal Care and Use Committees of the FMI, which conform to institutional and national regulatory standards on experimental animal usage. For orthotopical engraftment of breast cancer cell lines, 1×10^6 MDA-MB-468, 1×10^6 MDA-MB-231-LM2 and 0.5×10^6 […] or 4T-1-GFP cells were suspended in a 100-μl mixture of Basement Membrane Matrix Phenol Red-free (BD Biosciences) and PBS 1:1 and injected into the mammary gland 4 or between mammary glands 2 and 3. Primary patient breast tumors were cut into 1 mm×1 mm pieces and transplanted into mammary gland 4. Tumor-bearing mice were randomized based on tumor volume prior to the initiation of treatment, which was initiated when average tumor volume was at least 100 mm^3. […] Tumors were measured every 3 to 4 days with vernier calipers, and tumor volumes were calculated by the formula 0.5×(larger diameter)×(smaller diameter)^2. End point tumor sizes were analyzed for synergism using the formula AB/C<A/C×B/C, where C=tumor volume VHC, A=tumor volume compound 1, B=tumor volume compound 2, AB=tumor volume combination (Clarke, 1997).
(In general: In xenograft studies the graft and the host belong to different species.)

For test [3], the system named is pSTAT5/STAT5. In words: pSTAT5/STAT5 immunoblotting with densitometry in BEZ-treated Balb/c mouse breast cancer lines. Format: cell-based. Particulars: 300 nM BEZ, 8 h, relative to DMSO.
For another test, the system named is pAKT, pS6. Nature of the test: Time-course immunoblots of target inhibition (pAKT, pS6) in breast cancer lines. The following applies: MDA 468, MDA 231 LM2 and 4T-1 lines; single dose; up to 20 hours after treatment. It counts as cell-based, human, mouse.
The test system of test [4] is pJAK2/JAK2. Nature of the test: pJAK2/JAK2 ELISA in BEZ-treated Balb/c mouse breast cancer lines. Format: cell-based. Particulars: 300 nM BEZ, 8 h, relative to DMSO. For orientation: ELISA stands for enzyme-linked immunosorbent assay.
In another test the test system is pJAK2, pSTAT5. In words: pJAK2/pSTAT5 in xenografts of treated mice. Also on record: species or system SCID/beige mice. Particulars: 30 mg/kg once, after 8 hours of treatment.
Description: as §1

For the next test, the system named is IL-8 secretion. Nature of the test: IL-8 secretion ELISA in BEZ-treated breast cancer cell lines. Format: cell-based, human. The following applies: 300 nM BEZ; for IL8 BEZ vs. DMSO: 20 h, relative to DMSO.
The next test concerns IL-8. In words: IL-8 levels in tumors and plasma of treated mice. It counts as in vivo. The following applies: mice treated as in FIG. 5.
Description: as §1

Test [5] concerns pJAK2/JAK2. Nature of the test: pJAK2/JAK2 ELISA in BEZ-treated human breast cancer cell lines. The following applies: 300 nM BEZ, 8 h, relative to DMSO. It counts as cell-based.
The subject of test [6] is MDA231 LM2 and 4T-1 tumors. Nature of the test: Lung metastasis (metastatic index) in tumor-bearing mice. Particulars: mice bearing MDA231 LM2 shJAK2 or shNT tumors treated with BSK. It counts as in vivo.
Description: as §1, with “4.” for “4. Tumor-bearing mice were randomized based on tumor volume prior to the initiation of treatment, which was initiated when average tumor volume was at least 100 mm^3.”
Immunohistochemistry. […] Mouse lungs were fixed in Bouin's fixative and visible metastatic lung nodules were counted using a binocular.

Molecules are shown by their SMILES.

`CO[C@H]1C[C@@H]2CC[C@@H](C)[C@@](O)(O2)C(=O)C(=O)N2CCCC[C@H]2C(=O)O[C@H]([C@H](C)C[C@@H]2CC[C@@H](OCCO)[C@H](OC)C2)CC(=O)[C@H](C)/C=C(\C)[C@@H](O)[C@@H](OC)C(=O)[C@H](C)C[C@H](C)/C=C/C=C/C=C/1C` [RAD001, everolimus, reference compound]: in the test on pJAK2, pSTAT5, pSTAT3, the “Start of JAK2 activation (pJAK2/pSTAT5 upregulation) after adding the compound” value amounted to 4 hours.

Take `Nc1cc(C(F)(F)F)c(-c2cc(N3CCOCC3)nc(N3CCOCC3)n2)cn1` [COMPOUND C, 5-(2,6-di-morpholin-4-yl-pyrimidin-4-yl)-4-trifluoromethyl-pyridin-2-ylamine]: in the test with pJAK2, pSTAT5, pSTAT3, the “Start of JAK2 activation (pJAK2/pSTAT5 upregulation) after adding the compound” value is 8 hours.

With `Cn1c(=O)n(-c2ccc(C(C)(C)C#N)cc2)c2c3cc(-c4cnc5ccccc5c4)ccc3ncc21` [COMPOUND A, 2-methyl-2-[4-(3-methyl-2-oxo-8-quinolin-3-yl-2,3-dihydro-imidazo[4,5-c]quinolin-1-yl)-phenyl]-propionitrile], the “pSTAT5/STAT5 BEZ vs. DMSO” value in the test with pSTAT5/STAT5 [1] (BT474 cells) turned out to be 1.02; in the test on pSTAT5/STAT5 [1] (BT549 cells) it was 1.61; in the test on pSTAT5/STAT5 [1] (HCC1937 cells), 1.66; in the test with pSTAT5/STAT5 [1] (HCC1954 cells), 1.05; in the test on pSTAT5/STAT5 [1] (Hs578t cells) it was 0.96; in the test on pSTAT5/STAT5 [1] (MCF7 cells), 0.92. Moreover, the “pSTAT5/STAT5 BEZ vs. DMSO” value in the test on pSTAT5/STAT5 [1] (MCF10A cells) worked out at 3.21; with pSTAT5/STAT5 [1] (MDA 231 LM2 cells), 2.32; with pSTAT5/STAT5 [1] (MDA 231 cells) it was 1.58; in the test on pSTAT5/STAT5 [1] (MDA 436 cells) it was 1.77; with pSTAT5/STAT5 [1] (MDA 468 cells), 2.11; with pSTAT5/STAT5 [1] (SKBR3 cells) it was 0.82. Further, the “pSTAT5/STAT5 BEZ vs. DMSO” value is on record as 1.09 in the test with pSTAT5/STAT5 [1] (SUM159 cells); 0.62 with pSTAT5/STAT5 [1] (T47D cells); 1.62 in the test on pSTAT5/STAT5 [1] (ZR75-1 cells); 2.65 with pSTAT5/STAT5 [3] (4T-1 cells); 1.9 with pSTAT5/STAT5 [3] (168FARN cells). Further, the “JAK2/STAT5 and IL-8 secretion in human primary triple-negative breast tumors” value in test [2] is listed as “activates”. In the test on pAKT, pS6, the pAKT levels entry was “reduced”. Moreover, the pS6 levels result in the test on pAKT, pS6 is “completely blocked”. Moreover, the “pJAK2/JAK2 BEZ vs. DMSO” value amounted to 2.02 in the test on pJAK2/JAK2 [4] (4T-1 cells); 1.74 with pJAK2/JAK2 [4] (168FARN cells); 0.95 in the test with pJAK2/JAK2 [5] (BT474 cells); 1.21 in the test with pJAK2/JAK2 [5] (BT549 cells); 1.62 with pJAK2/JAK2 [5] (HCC1937 cells); 1.32 in the test with pJAK2/JAK2 [5] (HCC1954 cells). In addition, the “pJAK2/JAK2 BEZ vs. DMSO” value in the test on pJAK2/JAK2 [5] (Hs578t cells) amounted to 1.18; in the test with pJAK2/JAK2 [5] (MCF7 cells), 0.74; with pJAK2/JAK2 [5] (MCF10A cells), 2.11; in the test on pJAK2/JAK2 [5] (MDA 231 LM2 cells) it was 2.18; in the test on pJAK2/JAK2 [5] (MDA 231 cells) it was 1.25; with pJAK2/JAK2 [5] (MDA415 cells), 0.88. Also, the “pJAK2/JAK2 BEZ vs. DMSO” value amounted to 1.53 in the test with pJAK2/JAK2 [5] (MDA 436 cells); 2.32 in the test with pJAK2/JAK2 [5] (MDA 468 cells); 0.65 with pJAK2/JAK2 [5] (SKBR3 cells); 0.92 in the test with pJAK2/JAK2 [5] (SUM159 cells); 1.05 in the test on pJAK2/JAK2 [5] (T47D cells); 1.36 in the test on pJAK2/JAK2 [5] (ZR75-1 cells). Moreover, the “pJAK2 and pSTAT5 (JAK2/STAT5 activation) in vivo” value with pJAK2, pSTAT5 was “activates”; in the test on pJAK2, pSTAT5 (listed as BEZ), “considerable upregulation”. Besides, the “IL-8 secretion in breast cancer” value with IL-8 secretion (breast cancer cells) is given as “induces”. Further, the “IL8 BEZ vs. DMSO” value came to 0.99 in the test with IL-8 secretion (BT474 cells); 1.42 in the test on IL-8 secretion (BT549 cells); 1.06 with IL-8 secretion (HCC1937 cells); 1.22 in the test on IL-8 secretion (HCC1954 cells); 1.08 with IL-8 secretion (Hs578t cells); 0.81 with IL-8 secretion (MCF7 cells). Besides, the “IL8 BEZ vs. DMSO” value in the test on IL-8 secretion (MCF10A cells) was determined as 1.23; in the test with IL-8 secretion (MDA 231 LM2 cells) it was 2.04; with IL-8 secretion (MDA 231 cells) it was 1.41; with IL-8 secretion (MDA415 cells), 0.91; in the test with IL-8 secretion (MDA 436 cells), 1.41; with IL-8 secretion (MDA 468 cells), 1.91. Moreover, the “IL8 BEZ vs. DMSO” value is given as 1.01 in the test on IL-8 secretion (SKBR3 cells), 1.24 in the test with IL-8 secretion (SUM159 cells), 0.71 with IL-8 secretion (T47D cells) and 1.55 with IL-8 secretion (ZR75-1 cells). Moreover, in the test with IL-8, the “IL-8 secretion in vivo (tumors and plasma)” value is “enhanced”. Besides, the “Pattern of JAK2/STAT5 activation” value with pJAK2, pSTAT5, pSTAT3 (300 nM BEZ) is reported as “biphasic activation”. Further, the “Levels of pSTAT3” value with pJAK2, pSTAT5, pSTAT3 (BEZ treatment) was “largely unaffected”. Besides, the “pJAK2 and pSTAT5 (JAK2/STAT5 activation) in vitro” value with pJAK2, pSTAT5, pSTAT3 is listed as “activates”; with pJAK2, pSTAT5, pSTAT3 (listed as BEZ) it was “considerable upregulation”.

`Fc1cc(-c2cccc3ncc(-c4cnn(C5CCNCC5)c4)nc23)cc(F)c1CN1CCOCC1` [COMPOUND D, 8-(3,5-Difluoro-4-morpholin-4-ylmethyl-phenyl)-2-(1-piperidin-4-yl-1H-pyrazol-4-yl)-quinoxaline]: the “Metastasis (metastatic index), BSK alone” value in test [6] is “reduces”. In addition, in the test with IL-8, the “IL-8 secretion in vivo (tumors and plasma)” value is listed as “reduced”. Besides, in the test with pJAK2, pSTAT5, pSTAT3 (JAK2 inhibition added to BEZ treatment, MDA 468 cells, 8 h BEZ), the “Upregulation of pSTAT5 by BEZ” value was “counteracted”.

The record behind these values is patent US20140343128A1, “Combination of a phosphoinositide 3-kinase inhibitor and a modulator of the Janus Kinase 2 - Signal Transducer and Activator of Transcription 5 pathway” (NOVARTIS FORSCHUNGSSTIFTUNG, ZWEIGNIEDERLASSUNG FRIEDRICH …, priority 2011, published 2014).
